Experimental data published in ChEMBL document CHEMBL3596162, “Biaryls as potent, tunable dual neurokinin 1 receptor antagonists and serotonin transporter inhibitors” (Bioorg Med Chem Lett, 2015).

How the values were obtained:
Substance-P receptor [1] = target: Substance-P receptor (Meriones unguiculatus, UniProt Q5DUB1); test: Displacement of [125I]-substance P from gerbil NK1 receptor expressed in HEK293 cell membranes incubated for 30 mins by liquid scintillation counting method; parameters: species or system Gerbillinae
Sequence of Substance-P receptor (Meriones unguiculatus, UniProt Q5DUB1) (Q5DUB1 whole entry): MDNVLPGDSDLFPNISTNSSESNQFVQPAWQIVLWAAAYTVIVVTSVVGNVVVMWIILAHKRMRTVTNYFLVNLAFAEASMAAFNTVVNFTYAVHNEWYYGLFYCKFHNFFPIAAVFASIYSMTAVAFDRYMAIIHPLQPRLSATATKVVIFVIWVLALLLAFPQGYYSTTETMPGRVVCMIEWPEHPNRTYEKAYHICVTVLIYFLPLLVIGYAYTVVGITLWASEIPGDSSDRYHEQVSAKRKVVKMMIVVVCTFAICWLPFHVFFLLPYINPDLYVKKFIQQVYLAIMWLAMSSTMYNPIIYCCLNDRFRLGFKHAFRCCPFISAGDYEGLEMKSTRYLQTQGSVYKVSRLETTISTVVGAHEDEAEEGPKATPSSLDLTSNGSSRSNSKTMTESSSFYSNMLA

[2] = Displacement of [3H]-citalopram from gerbil SERT expressed in HEK293 cell membranes incubated for 60 mins by liquid scintillation counting method; parameters: species or system Gerbillinae
HEK293 = test: Selectivity index, ratio of IC50 for gerbil SERT expressed in HEK293 cell membranes to IC50 for gerbil NK1 receptor expressed in HEK293 cell membranes; type: cell-based; conditions: Gerbillinae
Substance-P receptor [3] = target: Substance-P receptor (Homo sapiens, UniProt P25103); test: Binding affinity to human NK1 receptor
Sequence of Substance-P receptor (Homo sapiens, UniProt P25103) (P25103 whole entry): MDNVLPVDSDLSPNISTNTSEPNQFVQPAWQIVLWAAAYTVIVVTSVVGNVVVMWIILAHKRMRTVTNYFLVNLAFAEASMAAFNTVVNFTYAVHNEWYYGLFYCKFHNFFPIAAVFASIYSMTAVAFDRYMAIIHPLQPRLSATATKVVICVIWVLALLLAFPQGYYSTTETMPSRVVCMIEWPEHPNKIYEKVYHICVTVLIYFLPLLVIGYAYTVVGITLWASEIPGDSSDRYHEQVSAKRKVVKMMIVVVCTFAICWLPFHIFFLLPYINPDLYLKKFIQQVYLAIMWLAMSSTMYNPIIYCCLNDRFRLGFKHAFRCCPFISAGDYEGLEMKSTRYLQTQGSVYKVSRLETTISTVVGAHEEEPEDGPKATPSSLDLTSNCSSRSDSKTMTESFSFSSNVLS

[4] = Drug concentration in brain of gerbil foot tap model at 10 mg/kg, po; type: ADME, organism-based; conditions: gerbillinae, in vivo, read-out: Drug uptake
[5] = Plasma concentration in gerbil foot tap model at 10 mg/kg, po; type: ADME, organism-based; conditions: gerbillinae, in vivo
[6] = Ratio of drug concentration in brain to plasma of gerbil foot tap model at 10 mg/kg, po; type: ADME, organism-based; conditions: gerbillinae, read-out: BPR
Gerbillinae [7] = test: Inhibition of foot tapping in gerbil foot tap model at 10 mg/kg, po and treated with 3 pmol, icv GR-73632 and measured for 5 mins after animal regains righting reflex; type: functional
Gerbillinae [8] = test: In-vivo receptor occupancy at SERT in gerbil at 3 mg/kg, po measured after 4 hrs; type: functional
Gerbillinae [9] = test: In-vivo receptor occupancy at SERT in gerbil at 30 mg/kg, po measured after 4 hrs; type: functional
Gerbillinae [10] = test: In-vivo receptor occupancy at SERT in gerbil at 3 to 30 mg/kg, po measured after 4 hrs; type: functional, organism-based
Gerbillinae [11] = test: In-vivo receptor occupancy at NK1 receptor in gerbil at 3 to 30 mg/kg, po measured after 4 hrs; type: functional

Row | Structure (SMILES) | IC50 (Substance-P receptor [1]) [nM] | IC50 [2] [nM] | Ratio IC50 (HEK293) | also measured
1 | COc1ccc(-n2nnnc2C)cc1CO[C@H]1CCCN[C@H]1c1ccccc1 | 0.05 |  |  | 
2 | CCOc1ccc(-c2cc(COCC3(c4ccccc4)CCNCC3)cc(C(F)(F)F)c2)cc1 | 3.4 | 14 | 4 | 
3 | COc1ccc(-n2nnnc2C)cc1COCC1(c2ccccc2)CCNCC1 | 87 | 37 | 0.4 | 
4 | N#Cc1cccc(-c2cc(COCC3(c4ccccc4)CCNCC3)cc(C(F)(F)F)c2)c1 | 49 | 10 | 0.2 | 
5 | FC(F)(F)c1cc(COCC2(c3ccccc3)CCNCC2)cc(-c2nccs2)c1 | 70 | 4.1 | 0.06 | 
6 | FC(F)(F)c1cc(COCC2(c3ccccc3)CCNCC2)cc(-c2ccccn2)c1 | 41 | 7.4 | 0.2 | 
7 | N#Cc1ccc(-c2cc(COCC3(c4ccccc4)CCNCC3)cc(C(F)(F)F)c2)cc1Cl | 1.1 | 3.1 | 3 | 
8 | Oc1ccc(-c2cc(COCC3(c4ccccc4)CCNCC3)cc(C(F)(F)F)c2)cc1 | 3.6 | 27 | 8 | 
9 | N#Cc1c(F)cc(-c2cc(COCC3(c4ccccc4)CCNCC3)cc(C(F)(F)F)c2)cc1F | 0.32 | 7 | 22 | 
10 | Fc1cccc(-c2cc(COCC3(c4ccccc4)CCNCC3)cc(C(F)(F)F)c2)c1 | 5 | 6.3 | 1 | 
11 | FC(F)(F)c1ccc(-c2cc(COCC3(c4ccccc4)CCNCC3)cc(C(F)(F)F)c2)cc1 | 30 | 36 | 1 | 
12 | FC(F)(F)c1cc(COCC2(c3ccccc3)CCNCC2)cc(-c2ccncc2)c1 | 1.6 | 16 | 10 | 
13 | COC(=O)c1ccc(-c2cc(COCC3(c4ccccc4)CCNCC3)cc(C(F)(F)F)c2)cc1 | 17 | 25 | 1 | 
14 | N#Cc1ccc(-c2cc(COCC3(c4ccccc4)CCNCC3)cc(C(F)(F)F)c2)cc1 | 0.45 | 4 | 9 | IC50 (Substance-P receptor [3]): 0.59 nM; concentration [4]: 190 nM; concentration [5]: 365 nM; Kp [6]: 0.52; inhibition in vivo at 10 mg/kg (Gerbillinae [7]): 29%
15 | COc1ccc(-n2nnnc2C(F)(F)F)cc1CO[C@H]1CCCN[C@H]1c1ccccc1 | 0.03 |  |  | 
16 | O=[N+]([O-])c1cccc(-c2cc(COCC3(c4ccccc4)CCNCC3)cc(C(F)(F)F)c2)c1 | 5.2 | 4.2 | 0.8 | 
17 | N#Cc1cc(F)c(-c2cc(COCC3(c4ccccc4)CCNCC3)cc(C(F)(F)F)c2)cc1F | 0.91 | 3.7 | 4 | 
18 | COc1ccccc1-c1cc(COCC2(c3ccccc3)CCNCC2)cc(C(F)(F)F)c1 | 54 | 4.2 | 0.1 | 
19 | Cn1nnnc1-c1cc(COCC2(c3ccccc3)CCNCC2)cc(C(F)(F)F)c1 | 65 | 50 | 0.8 | 
20 | Cc1cc(-c2cc(COCC3(c4ccccc4)CCNCC3)cc(C(F)(F)F)c2)ccc1C#N | 1.2 | 2.7 | 2 | 
21 | N#Cc1ccc(-c2cc(COCC3(c4ccccc4)CCNCC3)cc(C(F)(F)F)c2)cc1F | 1.1 | 8.9 | 8 | 
22 | CCN1CCC(COCc2cc(-c3ccc(C#N)cc3)cc(C(F)(F)F)c2)(c2ccccc2)CC1 | 0.25 | 420 | 1700 | 
23 | N#Cc1ccc(-c2cc(COCC3(c4ccccc4)CCNCC3)cc(C(F)(F)F)c2)nc1 | 8.1 | 4 | 0.5 | 
24 | FC(F)(F)c1cc(COCC2(c3ccccc3)CCNCC2)cc(-c2ccc3ccccc3c2)c1 | 120 | 110 | 0.9 | 
25 | Fc1ccccc1-c1cc(COCC2(c3ccccc3)CCNCC2)cc(C(F)(F)F)c1 | 23 | 7.6 | 0.3 | 
26 | N#Cc1c(F)c(F)c(-c2cc(COCC3(c4ccccc4)CCNCC3)cc(C(F)(F)F)c2)c(F)c1F | 4.8 | 47 | 10 | 
27 | FC(F)(F)c1cc(COCC2(c3ccccc3)CCNCC2)cc(-c2ccc(Cl)cc2)c1 | 2.8 | 1.8 | 0.6 | 

Row | Structure (SMILES) | IC50 (Substance-P receptor [1]) [nM] | IC50 [2] [nM] | Ratio IC50 (HEK293) | also measured
28 | Nc1cccc(-c2cc(COCC3(c4ccccc4)CCNCC3)cc(C(F)(F)F)c2)c1 | 25 | 30 | 1 | 
29 | CN(C)c1ccc(-c2cc(COCC3(c4ccccc4)CCNCC3)cc(C(F)(F)F)c2)cc1 | 18 | 3.5 | 0.2 | 
30 | FC(F)(F)c1cc(COCC2(c3ccccc3)CCNCC2)cc(-c2cccc3ccccc23)c1 | 540 | 120 | 0.2 | 
31 | O=[N+]([O-])c1ccccc1-c1cc(COCC2(c3ccccc3)CCNCC2)cc(C(F)(F)F)c1 | 6.5 | 3.5 | 0.5 | 
32 | FC(F)(F)c1cc(COCC2(c3ccccc3)CCNCC2)cc(-c2ccccc2Cl)c1 | 68 | 6.4 | 0.1 | 
33 | CN1CCC(COCc2cc(-c3ccc(C#N)cc3)cc(C(F)(F)F)c2)(c2ccccc2)CC1 | 0.29 | 9.5 | 33 | IC50 (Substance-P receptor [3]): 0.2 nM; Occ (Gerbillinae [8]): 11%; Occ (Gerbillinae [9]): 84%; concentration [4]: 1300 nM; Occ (Gerbillinae [10]): Dose-dependent effect; Occ (Gerbillinae [11]): 88%; concentration [5]: 526 nM; Kp [6]: 2.5; inhibition in vivo at 10 mg/kg (Gerbillinae [7]): 73%
34 | Fc1ccc(-c2cc(COCC3(c4ccccc4)CCNCC3)cc(C(F)(F)F)c2)cc1 | 2.2 | 1.5 | 0.7 | 
35 | Cc1ccc(-c2cc(COCC3(c4ccccc4)CCNCC3)cc(C(F)(F)F)c2)cc1 | 8.4 | 6.4 | 0.8 | 
36 | FC(F)(F)c1cc(COCC2(c3ccccc3)CCNCC2)cc(-c2ccco2)c1 | 47 | 18 | 0.4 | 
37 | FC(F)(F)c1cc(COCC2(c3ccccc3)CCNCC2)cc(-c2ccc3c(c2)OCO3)c1 | 7.1 | 45 | 6 | 
38 | Cc1nnnn1-c1cc(COCC2(c3ccccc3)CCNCC2)cc(C(F)(F)F)c1 | 180 | 70 | 0.4 | 
39 | Oc1cccc(-c2cc(COCC3(c4ccccc4)CCNCC3)cc(C(F)(F)F)c2)c1 | 13 | 27 | 2 | 
40 | FC(F)(F)c1cc(COCC2(c3ccccc3)CCNCC2)cc(-c2nnn[nH]2)c1 | 200 | 8.6 | 0.04 | 
41 | Cn1nnc(-c2cc(COCC3(c4ccccc4)CCNCC3)cc(C(F)(F)F)c2)n1 | 36 | 9.6 | 0.3 | 
42 | COc1ccc(-n2cnnn2)cc1CO[C@H]1CCCN[C@H]1c1ccccc1 | 0.05 |  |  | 
43 | Cc1cccc(-c2cc(COCC3(c4ccccc4)CCNCC3)cc(C(F)(F)F)c2)c1 | 24 | 14 | 0.6 | 
44 | FC(F)(F)c1cc(COCC2(c3ccccc3)CCNCC2)cc(-n2nnnc2C(F)(F)F)c1 | 700 | 57 | 0.08 | 
45 | N#Cc1ccc(-c2cc(COCC3(c4ccccc4)CCN(Cc4ccccc4)CC3)cc(C(F)(F)F)c2)cc1 | 2 | 800 | 400 | 
46 | FC(F)(F)c1cc(COCC2(c3ccccc3)CCNCC2)cc(-c2ccccc2)c1 | 6.3 | 3.7 | 0.6 | 
47 | N#Cc1ccc(-c2cc(COCC3(c4ccccc4)CCNCC3)cc(C(F)(F)F)c2)cn1 | 1.9 | 10 | 5 | 
48 | O=[N+]([O-])c1ccc(-c2cc(COCC3(c4ccccc4)CCNCC3)cc(C(F)(F)F)c2)cc1 | 3.8 | 7.3 | 2 | 
49 | N#Cc1ccc(-c2cc(COCC3(c4ccccc4)CCN(C4CC4)CC3)cc(C(F)(F)F)c2)cc1 | 1.8 | 2100 | 1200 | 
50 | CC(C)N1CCC(COCc2cc(-c3ccc(C#N)cc3)cc(C(F)(F)F)c2)(c2ccccc2)CC1 | 0.39 | 450 | 1200 | 
51 | C[C@@H](O[C@H]1OCCN(Cc2n[nH]c(=O)[nH]2)[C@H]1c1ccc(F)cc1)c1cc(C(F)(F)F)cc(C(F)(F)F)c1 [APREPITANT] | 0.09 |  |  | 
52 | Cc1ccccc1-c1cc(COCC2(c3ccccc3)CCNCC2)cc(C(F)(F)F)c1 | 130 | 13 | 0.1 | 
53 | COc1ccc(-c2cc(COCC3(c4ccccc4)CCNCC3)cc(C(F)(F)F)c2)cc1 | 0.93 | 15 | 16 | 
